From patent US12410153B2, “Compounds, compositions and methods” (Avalo Therapeutics, Inc., priority 2014, dated 2025)
Where two headings read alike, the source gives them in different places.

Test: Repeated once-daily oral dosing with food (Days 1-7) in healthy subjects, PK and PD
Type: in vivo, human
Settings: for mean plasma concentrations higher vs young age subgroup: Day 7, 2 to 24 hours postdose; for Cmax: read-out: Cmax, Mean (SD)
Method: A randomized, double-blind, placebo-controlled, parallel-dose group in-patient study is conducted to investigate the pharmacodynamic (PD) effects of crystalline Form II of Compound (I) in healthy subjects.
The study is designed as a three-part, sequential study. The sequential nature of the study ensures that a range of doses are investigated first in a young, healthy population (Part 1) before proceeding to higher doses in the healthy population and the comparator populations (intermediate age and elderly) (Parts 2 and 3). For the purposes of this study, “young” refers to a subject who is 18 to 45 years of age, “intermediate age” refers to a subject who is 46 to 64 years of age, and “elderly” refers to a subject who is 65 years of age or older.
After a screening period of up to 21 days (Days −23 to −3), 16 healthy, young male and female subjects are randomly assigned to a dose group as shown in Table 9.
Each parallel dose group is balanced for gender (approximately equal number of males and females). The randomized subjects are domiciled from Day −1 through Day 8. On Day −1, the subjects receive placebo tablets in the fed state and undergo ambulatory blood pressure monitoring (ABPM) and safety assessments to establish time-matched baselines. On Days 1-7, the subjects receive the study drug in the fed state and undergo safety, pharmacokinetic (PK) and pharmacodynamics (PD) assessments. On Days 8-11, follow-up PK and safety assessments are performed.
Safety assessments include Clinician-Administered Dissociative States Scale (CADSS), Columbia-Suicide Severity Rating Scale (C-SSRS), concomitant medication, adverse event (AE) and vital sign assessments. In PK assessments, blood samples are taken and analyzed to determine PK parameters such as Cmax, Tmax, AUC0-24, and t1/2. PD assessments include ABPM, plasma brain-derived neurotrophic factor (BDNF) measurements, and Profile of Mood States (POMS) assessments.
After a screening period of up to 21 days (Days −23 to −3), 16 subjects (8 healthy, young male and female subjects, and 8 healthy, intermediate age male and female subjects) are randomly assigned to a dose group as shown in Table 10.
After a screening period of up to 21 days (Days −23 to −3), 16 subjects (8 healthy, young male and female subjects, and 8 healthy, elderly male and female subjects) are randomly assigned to a dose group as shown in Table 11.

[1] = females, all doses pooled, Day 1
[2] = females, all doses pooled, Day 7

In the case of `Cc1ccc(COC(=O)N2CC[C@H](CNc3ncccn3)[C@H](F)C2)cc1` [Form II, 4-methylbenzyl (3S, 4R)-3-fluoro-4-[(pyrimidin-2-ylamino)methyl] piperidine-1-carboxylate], the “Dose-Normalized Cmax, Mean (SD)” value (elderly, 12 mg, Day 1) was 29.11 (3.96) ng/mL/mg, the “AUC% extrap, Mean (SD)” value (elderly, 12 mg, Day 7) was 9.70 (5.93) % and the “CL/F, Mean (SD)” value (elderly, 12 mg, Day 7) was 2.79 (0.72) L/h. The “Dose-Normalized AUCinf, Mean (SD)” value (elderly, 12 mg, Day 7) was 858.67 (325.40) h * ng/mL/mg, the “Dose-Normalized Cmax, Mean (SD)” value (elderly, 12 mg, Day 7) was 29.11 (3.96) ng/mL/mg and the “apparent oral clearance lower vs young age group” value (elderly, Day 7) was “approximately 30%”. The “t½ higher vs young age group” value (elderly, Day 7) was ~38%, the “mean plasma concentrations higher vs young age subgroup” value (elderly) was ~40% and the AUC(0-t) (female, human, plasma, oral, females, all doses pooled, Day 1, read-out: AUC0-24, Mean (SD)) was 2340 ng·h/mL. It also gave an AUC(0-t) (female, human, plasma, oral, females, all doses pooled, Day 1, read-out: AUClast, Mean (SD)) of 2310 ng·h/mL, a Cmax (female, human, plasma, oral, females, all doses pooled, Day 1) of 270 ng/mL and a Vd/F (female, human, plasma, oral, females, all doses pooled, Day 1, read-out: Vz/F, Mean (SD)) of 182 L. The Tmax (female, human, plasma, oral, females, all doses pooled, Day 1, read-out: tmax, Mean (SD)) was 2.26 h, the Tmax (female, human, plasma, oral, females, all doses pooled, Day 1, read-out: tmax, Median) was 2 h and the AUC(0-t) (female, human, plasma, oral, females, all doses pooled, Day 7, read-out: AUC0-24, Mean (SD)) was 4470 ng·h/mL. For the same molecule, the AUC(0-inf) (female, human, plasma, oral, females, all doses pooled, Day 7, read-out: AUCinf, Mean (SD)) was 9320 ng·h/mL, the AUC(0-t) (female, human, plasma, oral, females, all doses pooled, Day 7, read-out: AUClast, Mean (SD)) was 8580 ng·h/mL and the Cmax (female, human, plasma, oral, females, all doses pooled, Day 7) was 373 ng/mL. The Vd/F (female, human, plasma, oral, females, all doses pooled, Day 7, read-out: Vss/F, Mean (SD)) was 105 L, the half-life (female, human, plasma, oral, females, all doses pooled, Day 7, read-out: t1/2, Mean (SD) (converted)) was 23.8 h and the Tmax (female, human, plasma, oral, females, all doses pooled, Day 7, read-out: tmax, Mean (SD)) was 2.31 h. For the same molecule, the Tmax (female, human, plasma, oral, females, all doses pooled, Day 7, read-out: tmax, Median) was 2 h, the “Day 7/Day 1 Cmax Ratio, Mean (SD)” value (females, all doses pooled) was 1.38 (0.27) and the “Observed Accumulation Index, Mean (SD)” value (females, all doses pooled) was 1.88 (0.37). For the same molecule, the “Steady State Accumulation Index, Mean (SD)” value (females, all doses pooled) was 1.10 (0.15), the “CL/F, Mean (SD)” value [1] was 5.79 (0.84) L/h and the “Dose-Normalized Cmax, Mean (SD)” value [1] was 20.59 (2.86) ng/mL/mg. The “AUC% extrap, Mean (SD)” value [2] was 6.76 (4.26) %, the “CL/F, Mean (SD)” value [2] was 3.19 (0.84) L/h and the “Dose-Normalized AUCinf, Mean (SD)” value [2] was 698.59 (282.19) h * ng/mL/mg. The “Dose-Normalized Cmax, Mean (SD)” value [2] was 27.98 (5.43) ng/mL/mg, the “effects on average nighttime SBP and DBP” value (human, in vivo) was “smaller and less consistently observed” and the “Day 7/Day 1 Cmax Ratio, Mean (SD)” value (intermediate age, 12 mg) was 1.41 (0.17). The “Observed Accumulation Index, Mean (SD)” value (intermediate age, 12 mg) was 1.92 (0.25), the “Steady State Accumulation Index, Mean (SD)” value (intermediate age, 12 mg) was 1.13 (0.16) and the “CL/F, Mean (SD)” value (intermediate age, 12 mg, Day 1) was 6.22 (1.34) L/h. For the same molecule, the “Dose-Normalized Cmax, Mean (SD)” value (intermediate age, 12 mg, Day 1) was 21.42 (4.22) ng/mL/mg, the “AUC% extrap, Mean (SD)” value (intermediate age, 12 mg, Day 7) was 7.51 (1.85) % and the “CL/F, Mean (SD)” value (intermediate age, 12 mg, Day 7) was 3.27 (0.80) L/h. For the same molecule, the “Dose-Normalized AUCinf, Mean (SD)” value (intermediate age, 12 mg, Day 7) was 675.34 (189.17) h * ng/mL/mg, the “Dose-Normalized Cmax, Mean (SD)” value (intermediate age, 12 mg, Day 7) was 30.03 (5.40) ng/mL/mg and the “apparent oral clearance lower vs young age group” value (intermediate age, Day 7) was “approximately 18%”. The “t½ higher vs young age group” value (intermediate age, Day 7) was “approximately 27%”, the “mean plasma concentrations higher vs young age subgroup” value (intermediate age) was “approximately 20%” and the AUC(0-t) (male, human, plasma, oral, males, all doses pooled, Day 1, read-out: AUC0-24, Mean (SD)) was 2210 ng·h/mL. For the same molecule, the AUC(0-t) (male, human, plasma, oral, males, all doses pooled, Day 1, read-out: AUClast, Mean (SD)) was 2190 ng·h/mL, the Cmax (male, human, plasma, oral, males, all doses pooled, Day 1) was 262 ng/mL and the Vd/F (male, human, plasma, oral, males, all doses pooled, Day 1, read-out: Vz/F, Mean (SD)) was 147 L. For the same molecule, the Tmax (male, human, plasma, oral, males, all doses pooled, Day 1, read-out: tmax, Mean (SD)) was 2.12 h.
